# Test results published in PubChem BioAssay AID248 (DTP/NCI, 2004).
# Values joined by “and” are separate entries in the source; they are usually repeats but may differ in a detail not shown here. Equal values may be shown once. Inconclusive results and toxic doses are left out.
# System: L1210 leukemia ip in BDF1 mice, survival T/C
# Test: NCI In Vivo Anticancer Drug Screen. Data for tumor model L1210 Leukemia (intraperitoneal) in B6D2F1 (BDF1) mice
# Conditions: endpoint: mean survival time, higher = longer survival
# Summary of the method: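 Ratio derived from survival: compound-dosed mice over vehicle-dosed mice, all bearing a transplantable tumor.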
# [1] = dose: 100.0 mg/kg/injection, schedule: Q04DX002 (ip), vehicle: Klucel (hydroxypropylcellulose) (HPC)
# [2] = dose: 200.0 mg/kg/injection, schedule: Q04DX002 (ip), vehicle: Klucel (hydroxypropylcellulose) (HPC)
# [3] = dose: 400.0 mg/kg/injection, schedule: Q04DX002 (ip), vehicle: Klucel (hydroxypropylcellulose) (HPC)
# [4] = dose: 50.0 mg/kg/injection, schedule: Q01DX009 (ip), vehicle: saline with Tween-80
# [5] = dose: 100.0 mg/kg/injection, schedule: Q01DX009 (ip), vehicle: saline with Tween-80
# [6] = dose: 100.0 mg/kg/injection, schedule: Q04DX003 (ip), vehicle: saline with Tween-80
# [7] = dose: 200.0 mg/kg/injection, schedule: Q04DX003 (ip), vehicle: saline with Tween-80
# [8] = dose: 100.0 mg/kg/injection, schedule: Q01DX009 (ip), vehicle: Klucel (hydroxypropylcellulose) (HPC)
# [9] = dose: 100.0 mg/kg/injection, schedule: Q04DX003 (ip), vehicle: Klucel (hydroxypropylcellulose) (HPC)
# [10] = dose: 200.0 mg/kg/injection, schedule: Q01DX009 (ip), vehicle: Klucel (hydroxypropylcellulose) (HPC)
# [11] = dose: 200.0 mg/kg/injection, schedule: Q04DX003 (ip), vehicle: Klucel (hydroxypropylcellulose) (HPC)
# [12] = dose: 400.0 mg/kg/injection, schedule: Q04DX003 (ip), vehicle: Klucel (hydroxypropylcellulose) (HPC)
# [13] = dose: 100.0 mg/kg/injection, schedule: Q01DX001 (ip), vehicle: saline
# [14] = dose: 200.0 mg/kg/injection, schedule: Q01DX001 (ip), vehicle: saline
# [15] = dose: 75.0 mg/kg/injection, schedule: Q01DX001 (ip), vehicle: saline
# [16] = dose: 400.0 mg/kg/injection, schedule: Q01DX009 (ip), vehicle: Klucel (hydroxypropylcellulose) (HPC)
smiles,measurement,setting,value
Cc1ccc2nc(NC(=O)N(CCCl)N=O)sc2c1,T/C,"dose: 53.0 mg/kg/injection, schedule: Q01DX009 (ip), vehicle: carboxymethylcellulose (CMC)",103 % of control
same,T/C,"dose: 80.0 mg/kg/injection, schedule: Q01DX009 (ip), vehicle: carboxymethylcellulose (CMC)",113 % of control
same,T/C,"dose: 118.0 mg/kg/injection, schedule: Q01DX001 (ip), vehicle: other",150 % of control
same,T/C,"dose: 118.0 mg/kg/injection, schedule: Q01DX006 (ip), vehicle: other",193 % of control
same,T/C,"dose: 120.0 mg/kg/injection, schedule: Q01DX009 (ip), vehicle: carboxymethylcellulose (CMC)",114 % of control
same,T/C,"dose: 180.0 mg/kg/injection, schedule: Q01DX001 (ip), vehicle: carboxymethylcellulose (CMC)",157 % of control
same,T/C,"dose: 200.0 mg/kg/injection, schedule: Q01DX001 (ip), vehicle: carboxymethylcellulose (CMC)",158 % of control
same,T/C,"dose: 266.0 mg/kg/injection, schedule: Q01DX006 (ip), vehicle: other",98 % of control
same,T/C,"dose: 266.0 mg/kg/injection, schedule: Q01DX009 (ip), vehicle: carboxymethylcellulose (CMC)",161 % of control
same,T/C,"dose: 400.0 mg/kg/injection, schedule: Q01DX001 (ip), vehicle: carboxymethylcellulose (CMC)",170 % of control
same,T/C,"dose: 400.0 mg/kg/injection, schedule: Q01DX006 (ip), vehicle: other",90 % of control
O=C1/C(=C\c2cccc3ccccc23)N2CCC1CC2,T/C,[1],100 % of control
same,T/C,[2],96 % of control
same,T/C,[3],104 % of control
NC(=O)c1cc(C(N)=O)cc([N+](=O)[O-])c1,T/C,[4],101 % of control
same,T/C,[5],101 % of control
same,T/C,[6],100 % of control
same,T/C,[7],96 % of control
COc1ccccc1C(=Nc1ccccc1)N(O)c1ccccc1,T/C,"dose: 2.5 mg/kg/injection, schedule: Q01DX009 (ip), vehicle: saline with Tween-80",93 % of control
same,T/C,"dose: 5.0 mg/kg/injection, schedule: Q01DX009 (ip), vehicle: saline with Tween-80",103 % of control
C=CCNC(=S)Nc1cc(Cl)ccc1C,T/C,[8],90 % of control
same,T/C,[9],92 % of control
same,T/C,[10],86 % of control
same,T/C,[11],100 % of control
same,T/C,[12],95 % of control
CCCCCCCN=C(N)c1ccc(C(=O)OCc2ccccc2)cc1,T/C,[13],94 % of control
same,T/C,[14],90 % of control
C[n+]1ccccc1/C=C/c1ccc2cccc(O)c2n1,T/C,"dose: 2.0 mg/kg/injection, schedule: Q01DX015 (ip), vehicle: saline",95 % of control
same,T/C,"dose: 4.0 mg/kg/injection, schedule: Q01DX015 (ip), vehicle: saline",95 % of control
same,T/C,"dose: 8.0 mg/kg/injection, schedule: Q01DX015 (ip), vehicle: saline",94 % of control
same,T/C,"dose: 16.0 mg/kg/injection, schedule: Q01DX015 (ip), vehicle: saline",101 % of control
same,T/C,"dose: 32.0 mg/kg/injection, schedule: Q01DX015 (ip), vehicle: saline",97 % of control
same,T/C,[15],102 % of control
FC(F)(F)c1ccc(-c2ccc(OCCN3CCCC3)cc2)cc1,T/C,"dose: 4.68 mg/kg/injection, schedule: Q01DX009 (ip), vehicle: saline",97 % of control
same,T/C,"dose: 9.37 mg/kg/injection, schedule: Q01DX009 (ip), vehicle: saline",92 % of control
same,T/C,"dose: 18.75 mg/kg/injection, schedule: Q01DX009 (ip), vehicle: saline",94 % of control and 89 % of control
same,T/C,"dose: 37.5 mg/kg/injection, schedule: Q01DX009 (ip), vehicle: saline",90 % of control
same,T/C,"dose: 37.5 mg/kg/injection, schedule: Q04DX003 (ip), vehicle: saline",93 % of control
same,T/C,"dose: 75.0 mg/kg/injection, schedule: Q04DX003 (ip), vehicle: saline",102 % of control
same,T/C,"dose: 150.0 mg/kg/injection, schedule: Q04DX003 (ip), vehicle: saline",87 % of control
O=C(NCc1ccccc1Cl)NC1CCCCC1,T/C,[1],87 % of control
same,T/C,[2],102 % of control
same,T/C,[3],105 % of control
Oc1ccccc1/C=N\N=C(N/N=C/c1ccccc1O)N/N=C/c1ccccc1O,T/C,"dose: 15.0 mg/kg/injection, schedule: Q01DX Z (ip), vehicle: saline",98 % of control
same,T/C,"dose: 30.0 mg/kg/injection, schedule: Q01DX Z (ip), vehicle: saline",102 % of control
same,T/C,"dose: 60.0 mg/kg/injection, schedule: Q01DX Z (ip), vehicle: saline",102 % of control
same,T/C,"dose: 120.0 mg/kg/injection, schedule: Q01DX Z (ip), vehicle: saline",96 % of control
same,T/C,"dose: 120.0 mg/kg/injection, schedule: Q01DX Z (oral), vehicle: saline",95 % of control
same,T/C,"dose: 240.0 mg/kg/injection, schedule: Q01DX Z (ip), vehicle: saline",101 % of control
same,T/C,"dose: 240.0 mg/kg/injection, schedule: Q01DX Z (oral), vehicle: saline",90 % of control
same,T/C,"dose: 480.0 mg/kg/injection, schedule: Q01DX Z (ip), vehicle: saline",95 % of control
same,T/C,"dose: 480.0 mg/kg/injection, schedule: Q01DX Z (oral), vehicle: saline",92 % of control
same,T/C,"dose: 960.0 mg/kg/injection, schedule: Q01DX Z (oral), vehicle: saline",90 % of control
Cc1cc(N=Nc2ccc(N(C)C)cc2)cc(C)[n+]1[O-],T/C,[8],104 % of control
same,T/C,[9],100 % of control
same,T/C,[10],98 % of control
same,T/C,[11],95 % of control
same,T/C,[12],88 % of control
O=C(O)c1cc([N+](=O)[O-])cc(P(=O)(O)O)c1,T/C,"dose: 12.5 mg/kg/injection, schedule: Q01DX001 (ip), vehicle: saline",86 % of control
same,T/C,"dose: 12.5 mg/kg/injection, schedule: Q04DX003 (ip), vehicle: saline",96 % of control
same,T/C,"dose: 25.0 mg/kg/injection, schedule: Q01DX001 (ip), vehicle: saline",99 % of control
same,T/C,"dose: 25.0 mg/kg/injection, schedule: Q04DX003 (ip), vehicle: saline",89 % of control
same,T/C,"dose: 50.0 mg/kg/injection, schedule: Q01DX001 (ip), vehicle: saline",87 % of control
same,T/C,"dose: 50.0 mg/kg/injection, schedule: Q04DX003 (ip), vehicle: saline",94 % of control
same,T/C,"dose: 75.0 mg/kg/injection, schedule: Q01DX009 (ip), vehicle: saline",100 % of control
same,T/C,"dose: 115.0 mg/kg/injection, schedule: Q01DX009 (ip), vehicle: saline",92 % of control
Cc1cccc(Cl)c1NC(=O)c1cc([N+](=O)[O-])cc([N+](=O)[O-])c1,T/C,[8],100 % of control
same,T/C,[10],96 % of control
CC(C)(C)NC(=O)Oc1ccccc1C(N)=O,T/C,[8],95 % of control
same,T/C,[10],95 % of control
same,T/C,[16],94 % of control
COc1cc(CNC2CCCCC2)ccc1O,T/C,[15],97 % of control
same,T/C,"dose: 150.0 mg/kg/injection, schedule: Q01DX001 (ip), vehicle: saline",110 % of control
O=[N+]([O-])c1cc(C(F)(F)F)cc([N+](=O)[O-])c1NN=C1CCCCC1,T/C,"dose: 100.0 mg/kg/injection, schedule: Q01DX009 (ip), vehicle: gum acacia",93 % of control
same,T/C,"dose: 200.0 mg/kg/injection, schedule: Q01DX009 (ip), vehicle: gum acacia",91 % of control
same,T/C,"dose: 400.0 mg/kg/injection, schedule: Q01DX009 (ip), vehicle: gum acacia",96 % of control
CCCCC(C)NC1=C(Cl)C(=O)c2ccccc2C1=O (stereo not given),T/C,"dose: 25.0 mg/kg/injection, schedule: Q01DX009 (ip), vehicle: saline with Tween-80",101 % of control
same,T/C,[4],93 % of control
same,T/C,[5],87 % of control
CC(C)OCCCNC(=O)NS(=O)(=O)c1ccc(N)cc1,T/C,[6],101 % of control
same,T/C,[7],100 % of control
same,T/C,"dose: 400.0 mg/kg/injection, schedule: Q04DX003 (ip), vehicle: saline with Tween-80",92 % of control
c1ccc2c(c1)CCc1c-2[nH]c2c1ccc1ccccc12,T/C,[13],91 % of control
same,T/C,[14],111 % of control
same,T/C,"dose: 400.0 mg/kg/injection, schedule: Q01DX001 (ip), vehicle: saline",94 % of control
C/C=C(/C(=O)NC(N)=O)C(C)C,T/C,"dose: 25.0 mg/kg/injection, schedule: Q01DX009 (ip), vehicle: Klucel (hydroxypropylcellulose) (HPC)",114 % of control
same,T/C,"dose: 50.0 mg/kg/injection, schedule: Q01DX009 (ip), vehicle: Klucel (hydroxypropylcellulose) (HPC)",97 % of control
same,T/C,[8],111 % of control
same,T/C,[10],103 % of control
same,T/C,[16],103 % of control
